Earlier results, collected in patent US10729766B2 (priority 2013, dated 2020).

How the values were obtained:
[1] = mice; single bolus low dose administration

Compound: O=P1(N(CCCl)CCCl)NCCCO1 (stereo not shown) [Cyclophosphamide, N,N-bis(2-chloroethyl)-1,3,2-oxazaphosphinan-2-amine 2-oxide]
- bioavailability, oral versus parenteral administration (human, in vivo, po): little difference in bioavailability
- peak plasma levels of the parent (varies between patients): 3 to 11 h
- time of effects returning to normal [1]: 7 to 10 days
- time to nadir of effects after administration [1]: ≤ 4 days
